Tests used:
Clostridium difficile = experiment: Activity against Clostridium difficile; type: cell-based; details: relative to corresponding capreomycin IB phenyl urea analog
[1] = tested on: MRSA (Methicillin resistant Staphylococcus aureus, ATCC33591); experiment: MIC determination in MRSA; type: cell-based
Experimental: Cation Adjusted Mueller Hinton Broth (Teknova #M5860); MRSA (Methicillin resistant Staphylococcus aureus, ATCC33591). Test compounds: all compounds were dissolved in PBS at 10 mg/mL and stored at −20° C.
The method used for determination of MIC's follows the procedure described by the Clinical Laboratory Standards Institute (CLSI). A standardized inoculum of MRSA was prepared per CLSI methods yielding a final cell concentration of 5×10 (5) CFU/mL. 10× compound dilutions were prepared by performing 2 fold serial dilutions in Cation Adjusted Mueller Hinton Broth. The starting and ending concentrations were 640 μg/mL and 1.25 μg/mL, respectively for final assay concentrations of 64 µg/mL and 0.125 μg/mL. 10 μL of the 10× compound dilutions were added to 90 μL of the MRSA cell suspension in microplate wells. Plates were incubated in a 35° C. incubator for approximately 20 hours.

mycobacteria = details: cited from earlier work
[2] = tested on: other genera of bacteria (Gram-positive, Gram-negative); details: cited from earlier work

Compound | fold more active against Clostridium difficile than the corresponding capreomycin IB phenyl urea analogs (Clostridium difficile) [fold] | activity against MRSA [1] | activity against mycobacteria (mycobacteria) | activity against other genera of bacteria [2] | efficacy against most Gram-positive bacteria (Staphylococcus) or Gram-negative bacteria (Escherichia coli) [2]
C[C@@H]1NC(=O)[C@@H](N)CNC(=O)[C@H](C2CCNC(=N)N2)NC(=O)/C(=C/NC(=O)Nc2cccc(-c3ccccc3)c2)NC(=O)[C@H](CN)NC1=O (some centres unmarked) [Compound 73] | 4 | active |  |  | 
Capreomycin |  |  | potent activity | little activity | not efficacious

From patent US20090203585A1, “CAPREOMYCIN DERIVATIVES AND THEIR USE AS ANTIBACTERIALS” (priority 2006, published 2009)
